Reference: patent US11059818B2, “Triazolopyridine inhibitors of myeloperoxidase” (BRISTOL-MYERS SQUIBB COMPANY, priority 2016, dated 2021)

What was measured:
[1] = biological target: T1, myeloperoxidase (Homo sapiens (Human), UniProt P05164); assay: MPO Peroxidation Assay (Amplex Red Assay); assay type: biochemical; conditions: potency range class
Method: MPO Peroxidation Assay (Amplex Red Assay)
MPO peroxidation activity was measured in 100 mM KPi (pH 7.4) by utilizing the non-fluorescent reagent Amplex Red (Invitrogen Cat. #A12222) which can be oxidized to the highly fluorescent resorufin. Amplex Red is oxidized by the peroxidase action of MPO to resorufin. Reactions were carried out in 50 μL total volume by adding a 25 μL mixture of 200 pM myeloperoxidase and 40 nM H2O2(Sigma #349887) to 100 nL inhibitor in 100% DMSO in a 384 well Perkin Elmer Optiplate. Enzyme and compound were preincubated for ten minutes at rt.
After the ten minute preincubation, 25 μL of an Amplex Red mixture containing 200 μM Amplex Red and 10 mM H2O2 was added to the plate. Kinetic determinations were carried out immediately on a Perkin Elmer Envision (15 minute kinetic read, Ex: 535 nm, Em: 590 nm).
IC50 values were calculated by determining the slope of the linear portion of the kinetic trace (180-540 secs), and using that calculated slope to determine % inhibition occurring at each concentration of inhibitor using the following equation:
(§1) [formula] where A=minimal Y value (activity level of inhibited sample), B=maximal Y value (activity level of uninhibited sample), C=Log IC50, D=Hill Slope, x=concentration of inhibitor. MPO Chlorination Assay (APF Assay)

[2] = biological target: T1, myeloperoxidase; assay: MPO Chlorination Assay (APF Assay); assay type: biochemical; conditions: potency range class
Method: as §1
MPO chlorination activity was measured in 100 mM KPi (pH 7.4) by utilizing the non-fluorescent reagent Aminophenyl fluorescein (APF, Invitrogen Cat. #A36003). APF is cleaved by (—OCl) to yield the fluorescent compound fluorescein. Reactions were carried out in 50 μL total volume by adding a 25 μL mixture of 200 pM myeloperoxidase and 120 mM NaCl to 100 nL inhibitor in 100% DMSO in a 384 well, non-binding surface clear bottom plate (Corning #3655). Enzyme, inhibitor, and chloride were preincubated for ten minutes at rt.
After the ten minute preincubation, 25 μL of an APF mixture containing […], 120 mM NaCl and 10 μM H2O2 was added to the plate using the internal dispensing system of a Hammatsu FDSS 6000. Kinetic determinations were carried out immediately on the FDSS 6000 (3 minute kinetic read, 1 read every second, ex: 485 nm, em: 535 nm). IC50 values for inhibitors were calculated by taking the slope of the linear portion of the kinetic measurement (20 seconds to ˜80-120 secs). […]
[formula] where A=minimal Y value (activity level of inhibited sample), B=maximal Y value (activity level of uninhibited sample), C=Log IC50, D=Hill Slope, x=concentration of inhibitor.

T1 sequence (P05164 49-745): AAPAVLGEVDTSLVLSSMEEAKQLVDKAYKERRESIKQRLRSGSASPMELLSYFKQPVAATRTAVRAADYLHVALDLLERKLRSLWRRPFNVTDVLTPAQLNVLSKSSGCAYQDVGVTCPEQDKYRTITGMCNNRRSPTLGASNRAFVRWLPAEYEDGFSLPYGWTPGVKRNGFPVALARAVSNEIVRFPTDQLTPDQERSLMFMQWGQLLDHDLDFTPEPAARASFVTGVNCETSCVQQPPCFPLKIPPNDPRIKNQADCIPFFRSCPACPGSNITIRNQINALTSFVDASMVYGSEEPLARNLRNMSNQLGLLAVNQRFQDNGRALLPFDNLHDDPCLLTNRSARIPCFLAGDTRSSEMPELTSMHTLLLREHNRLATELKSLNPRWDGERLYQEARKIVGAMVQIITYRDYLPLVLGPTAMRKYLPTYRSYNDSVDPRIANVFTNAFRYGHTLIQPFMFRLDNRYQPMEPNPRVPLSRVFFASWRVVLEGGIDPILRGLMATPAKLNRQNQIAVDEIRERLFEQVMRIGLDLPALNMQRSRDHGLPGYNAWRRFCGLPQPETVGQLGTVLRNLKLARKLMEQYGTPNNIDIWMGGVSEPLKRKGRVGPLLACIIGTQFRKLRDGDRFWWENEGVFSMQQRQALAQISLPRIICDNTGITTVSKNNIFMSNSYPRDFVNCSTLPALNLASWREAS

## Nc1cc(C(CCN[C@H]2CC[C@H](c3ccccc3)CC2)c2cc[nH]n2)c2nn[nH]c2n1 (stereo partly drawn) [Example 36, 7-[1-(1H-Pyrazol-3-yl)-3-{[trans-4-phenylcyclohexyl]amino}propyl]-3H-[1,2,3]triazolo[4,5-b]pyridin-5-amine]
[1]
  IC50: 1000 to 10000 nM
[2]
  IC50: 101 to 999 nM

## Nc1cc(C(CCNC2CCC(c3ccccc3)CC2)c2cnn(Cc3ccccc3)c2)c2nn[nH]c2n1 (stereo not drawn) [Example 16, 7-[1-(1-Benzyl-1H-pyrazol-4-yl)-3-[(4-phenylcyclohexyl)amino]propyl]-3H-[1,2,3]triazolo[4,5-b]pyridin-5-amine]
[1]
  IC50: 101 to 999 nM
[2]
  IC50: 1 to 100 nM

## Nc1cc(C(CCN[C@H]2CC[C@H](c3ccccc3)CC2)c2cnn(Cc3cccc4ccccc34)c2)c2nn[nH]c2n1 (stereo partly drawn) [Example 24, 7-{1-[1-(Naphthalen-1-ylmethyl)-1H-pyrazol-4-yl]-3-{[trans-4-phenylcyclohexyl]amino}propyl}-3H-[1,2,3]triazolo[4,5-b]pyridin-5-amine]
[1]
  IC50: 101 to 999 nM
[2]
  IC50: 1 to 100 nM

## Nc1cc(C(CCN[C@@H]2C[C@@H](Cc3ccccc3)[C@H](O)C2)c2cnn(Cc3cccc(O)c3)c2)c2nn[nH]c2n1 (stereo partly drawn) [Example 42, 3-{[4-(1-{5-Amino-3H-[1,2,3]triazolo[4,5-b]pyridin-7-yl}-3-{[(1R,3R,4R)-3-benzyl-4-hydroxycyclopentyl]amino}propyl)-1H-pyrazol-1-yl]methyl}phenol]
[1]
  IC50: 1 to 100 nM
[2]
  IC50: 1 to 100 nM

## Nc1cc(C(CCN[C@H]2CC[C@H](c3ccccc3)CC2)c2cnn(C3CCCC3)c2)c2nn[nH]c2n1 (stereo partly drawn) [Example 23, 7-[1-(1-Cyclopentyl-1H-pyrazol-4-yl)-3-{[trans-4-phenylcyclohexyl]amino}propyl]-3H-[1,2,3]triazolo[4,5-b]pyridin-5-amine]
[1]
  IC50: 1000 to 10000 nM
[2]
  IC50: 1 to 100 nM

## Nc1cc(C(CCOc2ccccc2)c2cnn(Cc3ccc4c(c3)CCNC4)c2)c2nn[nH]c2n1 (stereo not drawn) [Example 11, 7-{3-Phenoxy-1-[1-(1,2,3,4-tetrahydroisoquinolin-6-ylmethyl)-1H-pyrazol-4-yl]propyl}-3H-[1,2,3]triazolo[4,5-b]pyridin-5-amine]
[1]
  IC50: 101 to 999 nM
[2]
  IC50: 101 to 999 nM

## Nc1cc([C@H](CCN[C@H]2CC[C@H](c3ccccc3)CC2)c2cnn(Cc3cccc(OC(F)F)c3)c2)c2nn[nH]c2n1 [Example 33A, 7(S)-[1-(1-{[3-(Difluoromethoxy)phenyl]methyl}-1H-pyrazol-4-yl)-3-{[trans-4-phenylcyclohexyl]amino}propyl]-3H-[1,2,3]triazolo[4,5-b]pyridin-5-amine]
[1]
  IC50: 1000 to 10000 nM
[2]
  IC50: 101 to 999 nM

## Nc1cc(C(CCC(c2ccccc2)c2ccccc2)c2cnn(Cc3ccc4c(c3)CCNC4)c2)c2nn[nH]c2n1 (stereo not drawn) [Example 5, 7-{4,4-diphenyl-1-[1-(1,2,3,4-tetrahydroisoquinolin-6-ylmethyl)-1H-pyrazol-4-yl]butyl}-3H-[1,2,3]triazolo[4,5-b]pyridin-5-amine]
[1]
  IC50: 1000 to 10000 nM
[2]
  IC50: 1 to 100 nM

## Nc1cc(C(CCN[C@H]2CC[C@H](c3ccccc3)CC2)c2cnn(Cc3cccc(C(F)(F)F)c3)c2)c2nn[nH]c2n1 (stereo partly drawn) [Example 31, 7-(3-{[trans-4-Phenylcyclohexyl]amino}-1-(1-{[3-(trifluoromethyl)phenyl]methyl}-1H-pyrazol-4-yl)propyl)-3H-[1,2,3]triazolo[4,5-b]pyridin-5-amine]
[1]
  IC50: 101 to 999 nM
[2]
  IC50: 1 to 100 nM

## Nc1cc(C(CCN[C@H]2CC[C@H](c3ccccc3)CC2)c2cn[nH]c2)c2nn[nH]c2n1 (stereo partly drawn) [Example 22, 7-[1-(1H-Pyrazol-4-yl)-3-{[trans-4-phenylcyclohexyl]amino}propyl]-3H-[1,2,3]triazolo[4,5-b]pyridin-5-amine]
[1]
  IC50: 1000 to 10000 nM
[2]
  IC50: 101 to 999 nM

## Nc1cc(C(CCN[C@H]2CC[C@H](c3ccccc3)CC2)c2cnn(CC3CCC3)c2)c2nn[nH]c2n1 (stereo partly drawn) [Example 21, 7-{1-[1-(Cyclobutylmethyl)-1H-pyrazol-4-yl]-3-{[(1 r,4r)-4-phenylcyclohexyl]amino}propyl}-3H-[1,2,3]triazolo[4,5-b]pyridin-5-amine]
[1]
  IC50: 101 to 999 nM
[2]
  IC50: 101 to 999 nM

## Nc1cc(C(CCNC23CCC(c4ccccc4)(CC2)[C@@H](O)C3)c2cnn(Cc3cccc(O)c3)c2)c2nn[nH]c2n1 (stereo partly drawn) [Example 52]
[1]
  IC50: 1 to 100 nM
[2]
  IC50: 1 to 100 nM

## Nc1cc([C@@H](CCN[C@H]2CC[C@H](c3ccccc3)CC2)c2cnn(Cc3cccc(OC(F)F)c3)c2)c2nn[nH]c2n1 [Example 33B, 7(R)-[1-(1-{[3-(Difluoromethoxy)phenyl]methyl}-1H-pyrazol-4-yl)-3-{[trans-4-phenylcyclohexyl]amino}propyl]-3H-[1,2,3]triazolo[4,5-b]pyridin-5-amine]
[1]
  IC50: 1 to 100 nM
[2]
  IC50: 1 to 100 nM

## Nc1cc(C(CCNC2CCc3ccccc32)c2cnn(Cc3ccccc3)c2)c2nn[nH]c2n1 (stereo not drawn) [Example 17, 7-[1-(1-Benzyl-1H-pyrazol-4-yl)-3-[(2,3-dihydro-1H-inden-1-yl)amino]propyl]-3H-[1,2,3]triazolo[4,5-b]pyridin-5-amine]
[1]
  IC50: 101 to 999 nM
[2]
  IC50: 1 to 100 nM

## CCC(c1cnn(Cc2cccc(O)c2)c1)c1cc(N)nc2[nH]nnc12 (stereo not drawn) [Example 47]
[1]
  IC50: 101 to 999 nM
[2]
  IC50: 101 to 999 nM

## Nc1cc(C(CCC2CCOCC2)c2cnn(Cc3ccc4c(c3)CCNC4)c2)c2nn[nH]c2n1 (stereo not drawn) [Example 10, 7-[3-(Oxan-4-yl)-1-[1-(1,2,3,4-tetrahydroisoquinolin-6-ylmethyl)-1H-pyrazol-4-yl]propyl]-3H-[1,2,3]triazolo[4,5-b]pyridin-5-amine]
[1]
  IC50: 101 to 999 nM
[2]
  IC50: 1000 to 10000 nM

## Nc1cc(C(CCO)c2cnn(Cc3cccc(OC4CCC(N)C4)c3)c2)c2nn[nH]c2n1 (stereo not drawn) [Example 55]
[1]
  IC50: 101 to 999 nM
[2]
  IC50: 101 to 999 nM

## CC(c1cnn(Cc2ccc3c(c2)CCNC3)c1)c1cc(N)nc2[nH]nnc12 (stereo not drawn) [Example 3, 7-{1-[1-(1,2,3,4-tetrahydroisoquinolin-6-ylmethyl)-1H-pyrazol-4-yl]ethyl}-3H-[1,2,3]triazolo[4,5-b]pyridin-5-amine]
[1]
  IC50: 101 to 999 nM
[2]
  IC50: 101 to 999 nM

## Nc1cc(C(CCN[C@H]2CC[C@H](c3ccccc3)CC2)c2ccc(F)nc2)c2nn[nH]c2n1 (stereo partly drawn) [Example 45]
[1]
  IC50: 101 to 999 nM
[2]
  IC50: 101 to 999 nM

## Nc1cc(C(CCNC23CCC(c4ccccc4)(CC2)CC3)c2cnn(CCc3cccc(O)c3)c2)c2nn[nH]c2n1 (stereo not drawn) [Example 50]
[1]
  IC50: 101 to 999 nM
[2]
  IC50: 1 to 100 nM

## Nc1cc(C(CCN[C@H]2CC[C@H](c3ccccc3)CC2)c2cnn(Cc3cccc(OC(F)F)c3)c2)c2nn[nH]c2n1 (stereo partly drawn) [Example 25, 7-[1-(1-{[3-(Difluoromethoxy)phenyl]methyl}-1H-pyrazol-4-yl)-3-{[trans-4-phenylcyclohexyl]amino}propyl]-3H-[1,2,3]triazolo[4,5-b]pyridin-5-amine]
[1]
  IC50: 101 to 999 nM
[2]
  IC50: 1 to 100 nM

## Nc1cc(C(CCN[C@H]2CC[C@H](c3ccccc3)CC2)c2cnn(C3CCC(F)(F)C3)c2)c2nn[nH]c2n1 (relative stereo) [Example 27, 7-{1-[1-(3,3-Difluorocyclopentyl)-1H-pyrazol-4-yl]-3-{[trans-4-phenylcyclohexyl]amino}propyl}-3H-[1,2,3]triazolo[4,5-b]pyridin-5-amine]
[1]
  IC50: 101 to 999 nM
[2]
  IC50: 1 to 100 nM

## Nc1cc(C(CCCC2CCc3ccccc32)c2cnn(Cc3ccc4c(c3)CCNC4)c2)c2nn[nH]c2n1 (stereo not drawn) [Example 8, 7-[4-(2,3-dihydro-1H-inden-1-yl)-1-[1-(1,2,3,4-tetrahydroisoquinolin-6-ylmethyl)-1H-pyrazol-4-yl]butyl]-3H-[1,2,3]triazolo[4,5-b]pyridin-5-amine]
[1]
  IC50: 1000 to 10000 nM
[2]
  IC50: 101 to 999 nM

## Nc1cc(C(CCN[C@H]2CC[C@H](c3ccccc3)CC2)c2cnn(Cc3cc(F)cc(F)c3)c2)c2nn[nH]c2n1 (stereo partly drawn) [Example 26, 7-(1-{1-[(3,5-Difluorophenyl)methyl]-1H-pyrazol-4-yl}-3-{[trans-4-phenylcyclohexyl]amino}propyl)-3H-[1,2,3]triazolo[4,5-b]pyridin-5-amine]
[1]
  IC50: 101 to 999 nM
[2]
  IC50: 1 to 100 nM

## Nc1cc(C(CCN[C@H]2CC[C@H](c3ccccc3)CC2)c2cccnc2)c2nn[nH]c2n1 (stereo partly drawn) [Example 34, 7-[1-(Pyridin-3-yl)-3-{[trans-4-phenylcyclohexyl]amino}propyl]-3H-[1,2,3]triazolo[4,5-b]pyridin-5-amine]
[1]
  IC50: 101 to 999 nM
[2]
  IC50: 1 to 100 nM

## Nc1cc(C(CCCc2ccccc2)c2cnn(Cc3cccnc3)c2)c2nn[nH]c2n1 (stereo not drawn) [Example 12, 7-{4-Phenyl-1-[1-(pyridin-3-ylmethyl)-1H-pyrazol-4-yl]butyl}-3H-[1,2,3]triazolo[4,5-b]pyridin-5-amine]
[1]
  IC50: 101 to 999 nM
